Results: patent US8022056B2, “Compositions and methods for the treatment of cancer” (Tautatis, Inc, priority 2006, dated 2011)
Where two headings read alike, the source gives them in different places.

Legend:
[1] = system: U373 glioblastoma cell line; experiment: Long-term growth inhibition, crystal violet staining; type: cell-based, human; settings: 10 nM, over a week
Procedure: For proliferation assays tumor cell suspensions (100 μl/well) were seeded into 96-well flat bottomed microtitration plates at a density of ca. 15 cells/microscopic field (magnification 320×). After 2-3 days the culture medium was removed by suction and replaced by fresh medium (200 μl/well) containing varying concentrations of the compound of the formula 1 or vehicle (0.5% DMSO). Compound 1 was added as […] concentrated feed solutions. On every plate 16 wells served as controls and 16 wells were used per concentration of 1. After various times of incubation the cells were fixed with glutardialdehyde and stored in a refrigerator. At the end of the assay all plates were processed simultaneously (staining with 0.02% aqueous crystal violet solution (100 μl/well). Excess dye was removed by rinsing the trays with water for 20 min. The stain bound by the cells was redissolved in 70% ethanol (180 μl/well) while shaking the microplates for about 3 hours. Absorbance (proportional to cell mass) was measured at 578 nm using a BIOTEK 309 Autoreader. The results (mean values±standard deviation) were plotted as growth curves.
The EGF-receptor independent U373 Human Glioblastoma cell line (obtained from ATCC, Rockville, USA) was cultured as above. Treatment with the compound of the formula 1 and analysis of growth inhibition was performed analogous to Example 3.

CDK1 = CDK1 (Homo sapiens, UniProt P06493); experiment: Kinase inhibition under standard conditions, CDK1; type: biochemical
CDK1, sequence (P06493 whole entry, species assumed): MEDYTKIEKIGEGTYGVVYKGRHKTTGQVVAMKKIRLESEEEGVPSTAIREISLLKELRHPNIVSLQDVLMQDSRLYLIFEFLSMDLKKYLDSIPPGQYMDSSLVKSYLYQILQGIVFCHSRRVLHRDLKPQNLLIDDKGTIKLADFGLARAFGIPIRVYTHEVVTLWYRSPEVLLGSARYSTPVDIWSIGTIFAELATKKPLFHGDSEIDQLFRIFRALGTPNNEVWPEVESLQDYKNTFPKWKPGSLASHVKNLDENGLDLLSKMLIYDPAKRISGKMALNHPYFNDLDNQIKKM
CDK1, sequence (P14635 whole entry partner, species assumed): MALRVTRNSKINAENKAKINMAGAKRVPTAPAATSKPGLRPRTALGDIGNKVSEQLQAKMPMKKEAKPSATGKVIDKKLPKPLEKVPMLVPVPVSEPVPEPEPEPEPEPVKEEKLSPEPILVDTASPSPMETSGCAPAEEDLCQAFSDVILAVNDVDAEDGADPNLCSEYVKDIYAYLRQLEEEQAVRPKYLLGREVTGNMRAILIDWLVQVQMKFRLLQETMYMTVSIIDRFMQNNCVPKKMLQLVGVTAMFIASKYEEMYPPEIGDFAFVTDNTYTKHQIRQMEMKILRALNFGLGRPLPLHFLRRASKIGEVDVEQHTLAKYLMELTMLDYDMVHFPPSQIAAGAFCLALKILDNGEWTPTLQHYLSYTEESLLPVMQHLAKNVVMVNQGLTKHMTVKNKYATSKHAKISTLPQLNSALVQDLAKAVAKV

NCI-60 panel cell lines = experiment: NCI-60 panel growth inhibition screen; type: cell-based; settings: for GI50: nominal concentration
Text: FIGS. 7a-h show the inhibitory potencies of compound 1 in the cell lines of the NCI panel from various cancers. The growth of cells treated with various concentrations of compound 1 was expressed in reference to untreated controls (100%) after 48 hr exposure. Negative growth values represent cell death. Actual concentrations of compound 1 are about two times lower than nominal due to well binding in the 96-well plate format.
FIG. 8 represents the GI50 (50% growth inhibition, cross-hatch bars) and TGI (total growth inhibition, solid bars) values of all cells in the NCI-60 panel in relation to the attainable free mouse plasma concentration of orally applied compound 1, corrected for the reduction in actual inhibitor concentration by well binding. The oncogenic mutation spectrum of the cell lines is presented at the bottom.
To further exemplify the breadth of anti-tumor activity of compounds 1-4 the NCI-60 panel was screened with compound 1. The spectrum of verified oncogenic driver mutations in these cell lines was recently elucidated to encompass mutations in raf, ras, CDKN2A (cdk inhibitor), p53, PI3K, PTEN, EGFR, APC, FLT3, RB1 among others. Cell lines generally have several of these mutations representative of stage III and IV cancers [Ikediobi et al., Mol. Cancer. Ther. 5, 2606-2612 (2006)]. […] The average concentration for total growth inhibition (TGI) was thus at 200 nM, i.e. about 10-times GI50. At sustained free plasma concentrations in vivo of about 200 nM, that can be achieved with practical forms of oral dosing and in the absence of special formulations, all cell lines would be inhibited by more than 50% without exception, and more than half would show no growth at all or would be killed (FIG. 8).

**Q.** Which “growth arrest of U373 cells” value [1] does the source give for CNC(=O)[C@@]1(N)C[C@H]2O[C@]1(C)n1c3ccccc3c3c4c(c5c6ccccc6n2c5c31)C(=O)NC4 [Compound 1] here?
**A.** The value was “almost completely effective”.

**Q.** What about the IC50 (CDK1) of the same molecule?
**A.** Its IC50 is 43 nM.

**Q.** And the “average concentration for total growth inhibition (TGI)” value (NCI-60 panel cell lines; 48 hr exposure)?
**A.** Its value is 200 nM.

**Q.** And the “cell kill of HT29 cell line in vitro” value (NCI-60 panel cell lines; HT29, highest exposures)?
**A.** The value was “cannot be killed”.

**Q.** What about the “anti-proliferative activity across panel” value (NCI-60 panel cell lines; lung, colon, brain, skin, ovarian, kidney, prostate, breast cancer lines) of the same molecule?
**A.** Its value is “Significant anti-proliferative activity was seen in all cell lines”.

**Q.** What about the GI50 (NCI-60 panel cell lines; 48 hr exposure, read-out: GI50 potency range across cell lines) of the same molecule?
**A.** Its GI50 is no more than 150 nM.

**Q.** What about the GI50 (NCI-60 panel cell lines; 48 hr exposure, read-out: average 50% growth inhibition (GI50) across all cell lines) of the same molecule?
**A.** Its GI50 is 32 nM.
